{"source": "patent US20090221684A1", "about": "“Molecules for Gene Delivery and Gene Therapy, and Methods of Use Thereof” (priority 2005, published 2009)", "key": {"CHO cells [1]": {"test_system": "CHO cells", "assay": "Cytotoxicity, formazan-based proliferation assay and total protein assay, CHO cells", "details": "for cytotoxicity (cell proliferation/number as percentage of non-treated cells): 24 hours after addition", "experimental": "Cytotocixity experiments were also performed with CHO and L6 cells using a formazan-based proliferation assay and a total protein assay. The cells were seeded onto a 96-multiwell plate with an appropriate density of 1×10^4 cells per well. […] After another 24 hours, cell proliferation/number was determined and expressed as a percentage of non-treated cells.\nCytotoxicity was assessed using both a formazan-based proliferation assay (CellTiter 96 AQueous One Solution Cell Proliferation Assay kit, Promega) and a total protein-based assay (Pierce). Briefly, CHO cells were seeded onto a multi-well microtiter plate with an appropriate density, depending on the size of the well (e.g., 1×10^4 cells per well in a 96-well plate). After 48 h, MTS substrate was added to each well and the plate and incubated for 4 h at 37° C. in a humidified, 5% CO2 incubator. The amount of soluble formazan produced by cellular reduction of the substrates MTS was recorded at 490 nm using a multi-well plate reader. For the total protein-based proliferation assay, cells were lysed at the same time when transfection efficiency was assayed. A 5 μL of lysates were transferred to a separate multi-well plate. Total protein contents were assessed using the Coomassie Blue protein kit (Pierce, Rockford, Ill.) following the manufacturer protocol. Negative and positive controls were non-treated cells and commercial lipids treated cells, respectively. The proliferation results were expressed as percentages of non-treated cells."}, "[2]": {"assay": "Differential scanning calorimeter (DSC) trace of hydrated amphiphile", "format": "physicochemical"}, "[3]": {"assay": "Liposome average diameter by dynamic light scattering", "format": "physicochemical", "details": "extruded through 50 nm membrane, Tris buffer pH 7.4", "description": "(§1) It is likely that 4 will form bilayers. […] After 20 extrusions, a homogeneous liposome solution was observed."}, "[4]": {"assay": "Transmission electron micrographs (TEM) of vesicles", "format": "physicochemical", "description": "as §1"}, "calf thymus DNA": {"test_system": "calf thymus DNA", "assay": "Ethidium bromide displacement fluorescence assay", "format": "binding", "details": "fluorescence intensity as a function of vector/DNA charge ratio", "experimental": "The propensity of the lipids to bind DNA was measured via an ethidium bromide displacement fluorescence assay. This assay entailed measuring the reduction of the fluorescence intensity of the DNA-intercalated ethidium bromide, as this fluorescent probe is displaced by the cationic amphiphile. […] The results obtained with DOTAP, DOTAP/DOPE, and DOPC/DOTAP are consistent with previous reports. A 1:1 assembly is formed between the lipids and DNA.\nBinding studies were carried out by competitive displacement fluorimetric assay with DNA-bound ethidium bromide. This assay involves the addition of aliquots of the compound to a 3 mL solution of EthBr (1.3 μM) and calf thymus DNA (3 μM) in buffer (100 mM NaCl, 100 mM Tris, pH 7.4) with the decrease of fluorescence (λexc=546 nm, λem=600 nm; 1 cm path length glass cuvette, slit width 3 nm) recorded after 5 min equilibrium time following each addition."}, "[5]": {"test_system": "Chinese hamster ovarian (CHO) cells", "assay": "β-galactosidase reporter gene transfection in CHO cells", "format": "cell-based", "method": "The reporter gene was first mixed with the lipids in potassium phosphate buffer (PBS) at room temperature. We tested two different lipid/DNA ratios (5:1; and 20:1) while keeping the zwitterionic/DOTAP ratio constant at 1:1. Next, the lipid/DNA complexes were added to the cells. The amount of DNA used was the same as used in the naked DNA control (no lipid), and the negative control was compound 4 without DNA. After incubation at 37° C. and 5% CO2 for 2 h, the medium was removed and fresh growth medium was added. Transfection efficiencies were assessed after 48 h using the β-galactosidase enzyme assay in conjunction with a standard curve. The efficiency of each transfection was calculated as β-gal activity normalized to total protein.\nTransfection assays were performed using the well established beta-galactosidase transfection assay. In these experiments the beta-galactosidase gene is transfected into cells. Next, the expressed enzyme then cleaves a chemiluminescent reporter that is detected. […]\nChinese hamster ovarian cells (CHO, ATCC, Manassas, Va.) were cultured in complete F12K media (ATCC) containing 10% fetal calf serum (Sigma) and 1% penicillin and streptomycin (500 IU/ml and 5000 μg/ml, respectively, Mediatech, Herndon, Va.) at 37° C. in 5% CO2 with humidity. […] Transfection efficiencies were assessed 24 h to 48 h post transfection depending on the experimental design. […]"}, "L6 cells": {"test_system": "L6 cells", "assay": "Cytotoxicity, formazan-based proliferation assay and total protein assay, L6 cells", "format": "cell-based", "details": "24 hours after addition"}, "CHO cells [6]": {"test_system": "CHO cells", "assay": "Gene transfection efficiency in a cell population by optical microscopy", "format": "cell-based, Chinese hamster", "details": "reporter gene β-gal", "description": "Importantly, more than 70% of the cells had been transfected as compared to less than 40% when using other transfection reagents."}, "GAPDH": {"test_system": "GAPDH", "assay": "siRNA delivery, KDalert GAPDH gene knockdown assay", "format": "cell-based", "details": "48 hr after siRNA transfection", "experimental": "Trypsine adherent cells and dilute in normal growth medium to 1×10^5 cells per ml. […] Dilute RNA in serum free medium. Mix the diluted RNA with the transfectant reagent, incubate for 10 min at room temperature and dispense into a culture plate. Depending on the experimental design, the ration of lipid, siRNA, pH, and incubation time was varied. Overlay cell suspension onto the transfection mixture. Incubate at 37° C. and 5% CO2. Assay for gene knockdown were assessed after 48 h depending on the experimental protocol.\nThe gene knockdown assay performed was KDalert™ GAPDH Assay (Ambion) following the manufacturer protocol. Briefly, 48 hr after siRNA transfection, aspirate the culture medium from transfected cells. Add 200 μl KDalert Lysis Buffer to each sample well. Incubate at 4° C. for 20 min to lyse the cells. Pipet the cell lysate up and down 4-5 times to homogenize the lysate. Transfer 10 μl of each lysate or GAPDH Enzyme dilution (including the GAPDH Working Stock) to the wells of a clean 96 well plate. Working quickly, add 90 μl of KDalert Master Mix to each sample using a multi-channel pipettor to dispense the KDalert Master Mix quickly. Measure the increase in fluorescence of the samples at room temp. Using the reagent above we saw greater than 80% knockdown of the protein."}}, "note": "Where two headings read alike, the source gives them in different places."}
{"compound": "NCCOP(=O)(O)OCC(COC(=O)CCCCCCCCCCC(=O)OCc1ccccc1)OC(=O)CCCCCCCCCCC(=O)OCc1ccccc1", "note": "(racemic) [1,2-Di-dodecanedioyl benzyl ester-3-phosphoethanolamine-rac-glycerol]", "values": [{"measurement": "cell cytotoxicity", "setting": "CHO cells [1]", "result": "minimal cell cytotoxicity"}]}
{"compound": "C[N+](C)(C)CCOP(=O)([O-])OCC(COC(=O)CCCCCCCCCCC(=O)OCc1ccccc1)OC(=O)CCCCCCCCCCC(=O)OCc1ccccc1", "note": "(racemic) [Compound 4, 1,2-Di-dodecanedioyl benzyl ester-3-phosphocholine-rac-glycerol]", "values": [{"measurement": "phase-transition temperature", "setting": "[2]", "result": "~44", "unit": "°C"}, {"measurement": "average diameter of the liposomes", "setting": "[3]", "result": 79, "unit": "nm"}, {"measurement": "average size of vesicular organizations", "setting": "[4]", "result": "about 100 nM"}, {"measurement": "displacement of DNA-intercalated ethidium bromide (fluorescence intensity)", "setting": "calf thymus DNA", "result": "do not displace EtBr"}, {"measurement": "transfection efficiency (β-gal activity normalized to total protein)", "setting": "[5]; assessed after 48 h, result in words", "result": "does not transfect DNA"}, {"measurement": "cytotoxicity (cell proliferation/number as percentage of non-treated cells)", "setting": "CHO cells [1]; CHO cells", "result": "None of the amphiphiles showed significant cytotoxicity"}, {"measurement": "cytotoxicity (cell proliferation/number as percentage of non-treated cells)", "setting": "L6 cells", "result": "None of the amphiphiles showed significant cytotoxicity"}, {"measurement": "time to loss of 4", "setting": "esterase", "result": "four"}, {"measurement": "time to complete hydrolysis of 4 to yield 5", "setting": "esterase; esterase added to liposomes prepared from 4, HPLC", "result": 8, "unit": "h"}]}
{"compound": "1,2-Di-tetradecanoyl-3-Lys-Trp-Lys-rac-glycerol", "values": [{"measurement": "transfection capability", "setting": "[5]; CHO cells, Example 15, β-gal reporter gene", "result": "high transfection capability"}, {"measurement": "cell cytotoxicity", "setting": "CHO cells [1]; CHO cells, Example 16, MTS and total protein assays", "result": "minimal cell cytotoxicity"}, {"measurement": "cells transfected", "setting": "CHO cells [6]", "result": "more than 70%"}, {"measurement": "knockdown of the protein", "setting": "GAPDH", "result": "greater than 80%"}]}
{"compound": "CCCCCCCC/C=C\\CCCCCCCC(=O)OC[C@H](COP(=O)(O)OCCN)OC(=O)CCCCCCC/C=C\\CCCCCCCC", "note": "[DOPE, dioleylphosphatidyl ethanolamine]", "values": [{"measurement": "displacement of DNA-intercalated ethidium bromide (fluorescence intensity)", "setting": "calf thymus DNA", "result": "do not displace EtBr"}]}
{"compound": "CCCCCCCC/C=C\\CCCCCCCC(=O)OC[C@H](COP(=O)([O-])OCC[N+](C)(C)C)OC(=O)CCCCCCC/C=C\\CCCCCCCC", "note": "[DOPC, dioleylphosphatidyl choline]", "values": [{"measurement": "displacement of DNA-intercalated ethidium bromide (fluorescence intensity)", "setting": "calf thymus DNA", "result": "do not displace EtBr"}]}
{"compound": "CCCCCCCC/C=C\\CCCCCCCC(=O)OCC(C[N+](C)(C)C)OC(=O)CCCCCCC/C=C\\CCCCCCCC", "note": "(stereo not shown) [DOTAP, 1,2-dioleoyloxy-3-(trimethylammonio)-propane, reference compound]", "values": [{"measurement": "displacement of DNA-intercalated ethidium bromide (fluorescence intensity)", "setting": "calf thymus DNA", "result": "fluorescence intensity decreases"}, {"measurement": "cytotoxicity (cell proliferation/number as percentage of non-treated cells)", "setting": "CHO cells [1]; CHO cells", "result": "None of the amphiphiles showed significant cytotoxicity"}, {"measurement": "cytotoxicity (cell proliferation/number as percentage of non-treated cells)", "setting": "L6 cells", "result": "None of the amphiphiles showed significant cytotoxicity"}]}
